Results taken from the OligoGym collection.
Where “and” joins values, the source holds several entries; their conditions need not be identical. Equal entries are not always repeated. After the bases stand the sugars from the 5' end (letter, count) and the backbone: PS all phosphorothioate, else s phosphorothioate and o phosphodiester by linkage. Methylation of C is not given here. e = 2'-O-(2-methoxyethyl) (MOE); d = 2'-deoxy (DNA)

Molecular target: DGAT2
Conditions: ASO

CTAAGCTTATTAGGTGTCTT (sugars e5 d10 e5, PS)
target mRNA inhibition (HepG2, 2.5 µM): 68% | target mRNA inhibition (HepG2, 10 µM): 81%

TGGGAACTTCTTGCTCACTT (sugars e5 d10 e5, PS)
target mRNA inhibition (HepG2, 0.12 µM): 43%

AAGGCCAGGCCCCTTCTGAA (sugars e5 d10 e5, PS)
target mRNA inhibition (HepG2, 0.12 µM): 32%

GCAGGTTCATCTGCCTT (sugars e3 d10 e4, PS)
target mRNA inhibition (HepG2, 2.5 µM): 54% | target mRNA inhibition (HepG2, 10 µM): 82%

TTTCCATTTTTTACCCAACC (sugars e5 d10 e5, PS)
target mRNA inhibition (HepG2, 2.5 µM): 54% | target mRNA inhibition (HepG2, 10 µM): 90%

CATCACATGCTTATCCTTGA (sugars e5 d10 e5, PS)
target mRNA inhibition (HepG2, 0.12 µM): 41%

GGACAGGAGGGTCACACACA (sugars e5 d10 e5, PS)
target mRNA inhibition (HepG2, 0.12 µM): 45%

TTGTGTGTCTTCACCAGCTG (sugars e2 d13 e5, PS)
target mRNA inhibition (HepG2, 0.12 µM): 71%

TGACTGCATTCTTGCCAGGC (sugars e5 d10 e5, PS)
target mRNA inhibition (HepG2, 2.5 µM): 16% | target mRNA inhibition (HepG2, 10 µM): 69%

AGCTCAGAGACTCAGCCGCA (sugars e3 d14 e3, PS)
target mRNA inhibition (HepG2, 0.12 µM): 77%

GAATGCACTGAGTTTCTGCT (sugars e5 d10 e5, PS)
target mRNA inhibition (HepG2, 2.5 µM): 73% and 63% | target mRNA inhibition (HepG2, 10 µM): 92% and 87%

GCTGGTGTTCTACAAGCTGC (sugars e5 d10 e5, PS)
target mRNA inhibition (HepG2, 2.5 µM): 79% and 81% and 83% | target mRNA inhibition (HepG2, 10 µM): 90% and 86% and 88%

GTGGTCAGCAGGTTGTGTGT (sugars e5 d10 e5, PS)
target mRNA inhibition (HepG2, 0.12 µM): 44% | target mRNA inhibition (HepG2, 2.5 µM): 0%

CAGAAGGCACCCAGGCCCAT (sugars e5 d10 e5, PS)
target mRNA inhibition (HepG2, 0.12 µM): 33%

CATGGAGCTCAGAGACTCAG (sugars e2 d13 e5, PS)
target mRNA inhibition (HepG2, 0.12 µM): 71%

GAGCTCAGAGACTCAGCCGC (sugars e5 d10 e5, PS)
target mRNA inhibition (HepG2, 0.12 µM): 81%

TATTTGAAGATAAAGTCAGA (sugars e5 d10 e5, PS)
target mRNA inhibition (HepG2, 0.12 µM): 0%

CCCGGAGTAGGCGGCTATGA (sugars e5 d10 e5, PS)
target mRNA inhibition (HepG2, 2.5 µM): 60% | target mRNA inhibition (HepG2, 10 µM): 89%

AGGTTGTGTGTCTTCACCAG (sugars e2 d13 e5, PS)
target mRNA inhibition (HepG2, 0.12 µM): 61%

ACAGCAGCAGTCTAATCCAT (sugars e5 d10 e5, PS)
target mRNA inhibition (HepG2, 2.5 µM): 57% | target mRNA inhibition (HepG2, 10 µM): 87%

TGCTGCTCAGAAGGCCAGGC (sugars e5 d10 e5, PS)
target mRNA inhibition (HepG2, 0.12 µM): 42%

AATGCCAATGCCTAGGTCAC (sugars e5 d10 e5, PS)
target mRNA inhibition (HepG2, 2.5 µM): 72% | target mRNA inhibition (HepG2, 10 µM): 90%

GGTGGTCAGCAGGTTGTGTG (sugars e5 d10 e5, PS)
target mRNA inhibition (HepG2, 0.12 µM): 29%

TTCCTCATCTATACAGTGGG (sugars e5 d10 e5, PS)
target mRNA inhibition (HepG2, 2.5 µM): 57% and 72% and 73% | target mRNA inhibition (HepG2, 10 µM): 89% and 82% and 92%

AGCCTGCCACAGGGCCCTTT (sugars e5 d10 e5, PS)
target mRNA inhibition (HepG2, 0.12 µM): 37%

TGGCCCTGTGCTCTGTGGGC (sugars e5 d10 e5, PS)
target mRNA inhibition (HepG2, 10 µM): 35% and 33%

GCAGATCTTCATTACATGAT (sugars e5 d10 e5, PS)
target mRNA inhibition (HepG2, 10 µM): 86% and 91%

TCCCATTCTTTGAAAGCAAA (sugars e5 d10 e5, PS)
target mRNA inhibition (HepG2, 0.12 µM): 31%

CATCAGGTACTCCCTCAACA (sugars e5 d10 e5, PS)
target mRNA inhibition (HepG2, 0.12 µM): 35%

CCTTCCAGGGAATAAAATAC (sugars e5 d10 e5, PS)
target mRNA inhibition (HepG2, 0.12 µM): 3%

AGAAGAGCAAAGGCTTGCTT (sugars e5 d10 e5, PS)
target mRNA inhibition (HepG2, 2.5 µM): 74% and 72% | target mRNA inhibition (HepG2, 10 µM): 94% and 93%

GCTCTCATTTCTTATCTTCA (sugars e5 d10 e5, PS)
target mRNA inhibition (HepG2, 2.5 µM): 82% and 80% | target mRNA inhibition (HepG2, 10 µM): 95% and 93%

AGCAATGCCAATGCCTAGGT (sugars e5 d10 e5, PS)
target mRNA inhibition (HepG2, 2.5 µM): 82% | target mRNA inhibition (HepG2, 10 µM): 93%

CCTGGACAAGTCCTGCCCAT (sugars e3 d14 e3, PS)
target mRNA inhibition (HepG2, 0.12 µM): 70%

GCGCGATTCACTGAGGACCT (sugars e5 d10 e5, PS)
target mRNA inhibition (HepG2, 2.5 µM): 75% | target mRNA inhibition (HepG2, 10 µM): 76%

CAGGCATGGAGCTCAGAGAC (sugars e2 d13 e5, PS)
target mRNA inhibition (HepG2, 0.12 µM): 70%

AGGCATGGAGCTCAGAGACT (sugars e5 d10 e5, PS)
target mRNA inhibition (HepG2, 0.12 µM): 69% and 83% | target mRNA inhibition (HepG2, 2.5 µM): 39% | target mRNA inhibition (HepG2, 10 µM): 84% | target mRNA inhibition (HepG2, 20 µM): 51%
